No end group written: not given here.
Experiments:
HeLa cells [1] = conditions: concentrations as high as 100 μM; ref Akkarawongsa et al., 2006; cited from earlier work
Vaccinia virus = conditions: 1 h
vMJ343 = conditions: 1 h
[2] = tested on: recombinant vaccinia virus vMJ343; conditions: 1 h
Vero cells = conditions: concentrations as high as 100 μM; ref Akkarawongsa et al., 2006; cited from earlier work
mouse corneas = conditions: applied at a concentration of 6.1 mM; ref Akkarawongsa et al., 2006; cited from earlier work
HeLa or Vero cells = conditions: ref Akkarawongsa et al., 2006; cited from earlier work
HeLa cells [3] = experiment: Cytotoxicity after low pH wash; assay type: cell-based; conditions: PBS pH 7 or 5, 150 μM EB 1 hr 37°C, n = 6

Sequence | Cytotoxicity to HeLa cells (HeLa cells [1]) | EC50 (Vaccinia virus) [µM] | EC50 (vMJ343) [µM] | EC50 [2] [µM] | Cytotoxicity to Vero cells (Vero cells) | Cytotoxic effects on mouse corneas (mouse corneas) | CC50 (50% cytotoxic concentration) (HeLa or Vero cells) [µM] | Toxicity of low pH treatment and subsequent EB exposure (HeLa cells [3])
RRKKAAVALLPAVLLALLAP [EB] | not cytotoxic | 15 | ~45 | 45 | not cytotoxic | no cytotoxic effects | >100 | not toxic to the cells
RRKKLAALPLVLAAPLAVLA [EBX, reference compound] |  | 150 |  |  |  |  | >100 | 

— paper PMC2923446 (Virology, 2009)
